Laboratory results from US6306846A, “Anti-inflammatory and anti-ulcer compounds and process” (priority 1995, dated 2001).

What was measured:
[1] = Anti-inflammatory test models, overall statement; assay type: in vivo, rat; conditions: using only one test model
Excerpt: In order to test the anti-inflammatory activities of my copper coordination compounds, the following test models were employed:
(§1) (1) Carrageen in Foot Edema Model as described in Experentia, 6, pp. 469-71, "Zur Frage des Mechanis Mos der Hemmung des Bindegebswachstums durch Cortisone" (1950);
(2) Cotton Wad Granuloma Model as described in J. Pharmacol. Expt'l. Ther., 141, pp. 369-76, "Anti-inflammatory and Antipyretic Activities of Indomethacin, 9-(p-chlorobenzoyl)-5-Methoxy-2-Methyl-Indole-3-Acetic Acid" (1963); and
(3) Polyarthritis Model as described in Nature, 224, pp. 1320-21, "Effect of Prostaglandin E2 on Adjuvant Arthritis" (1969).

in vivo = conditions: for TI CFE / TI PA / selectivity ratio: ratio of lethal dose to effective dose
Excerpt: In addition to the foregoing anti-inflammatory and anti-ulcer tests, several LD50 tests [performed in accordance with Miller et al, Proceed. of The Society of Expt'l. Medicine, 57, p.

[2] = Carrageenin Foot Edema Model; assay type: in vivo, rat (male, Sprague Dawley); conditions: hydrocortisone comparison; model not given
Description: as §1
The foregoing literature references were followed in the following tests unless otherwise stated and they are incorporated by reference herein. Each test model will only be briefly described. Each test model is a recognized and accepted model for testing drugs for the treatment of arthritis.
In this test model test rats were injected with carrageenin in a hind paw one hour after administration of the copper coordination compound. The carrageenin induced inflammation. The rats were male, of the Sprague Dawley variety and weighed on the average 120 grams. The copper coordination compounds were first introduced subcutaneously. The dosages were compounded as follows:
The suspending agent was Tween 80, a nonionic surfactant sold by the Atlas Powder Company. A full description of it is contained at p. 648 of Remingtons Practice of Pharmacy (11th ed., Martin & Cook, The Mack Publishing Co., Easton Pa. 1956). Generally they may be described as a complex mixture of polyoxyethylene ethers of mixed oleic esters of sorbitol anhydrides. The initial screening dosage was 25 mg of the copper coordination compound given in one injection to ten rats. Compounds which were active received further testing at 5.0 mg and lower dosages. Each dosage was administered to at least ten rats. A dose was rated active if it caused a significant decrease (P<0.05) in the circumference of the feet injected with carrageenin six hours after administration. […] As a reference standard, saline solution plus suspending agent was subcutaneously administered to each of the ten rats.

In the case of `N[C@@H](Cc1c[nH]c2ccccc12)C(=O)[O-].N[C@@H](Cc1c[nH]c2ccccc12)C(=O)[O-].[Cu+2]` (racemic) [Example 16, Bis(D,L-tryptophanato(O,N)copper(II)], the “anti-inflammatory activity at the initial screening tests” value (from here on “anti-inflammatory activity”) [1] is reported as “no anti-inflammatory activity”.

For `NC(Cc1c[nH]c2ccccc12)C(=O)[O-].NC(Cc1c[nH]c2ccccc12)C(=O)[O-].[Cu+2]` [Example 1, Bis-L-tryptophanato(O,N)copper(II)], the “anti-inflammatory activity” value [1] was “no anti-inflammatory activity”.

In the case of `Nc1ccccc1C(=O)[O-].Nc1ccccc1C(=O)[O-].[Cu+2]` [Example 3, Bisanthranilato(O,N)copper(II)], the LD50 (in vivo; SC) is reported as 750 ± 106 mpk, the “TI CFE” value (in vivo; CFE (carrageenin foot edema)) is reported as 150 and the “TI PA” value (in vivo; PA (polyarthritis)) is reported as 750. For the same compound, the “% potency compared with hydrocortisone” value [2] was 60%.

For `CC(C)c1cc(C(=O)[O-])c(O)c(C(C)C)c1.CC(C)c1cc(C(=O)[O-])c(O)c(C(C)C)c1.[Cu+2]` [Example 4], the LD50 (in vivo; SC) was 240 ± 33 mpk, the “TI CFE” value (in vivo; CFE (carrageenin foot edema)) was 48 and the “TI PA” value (in vivo; PA (polyarthritis)) was 240. The “% potency compared with hydrocortisone” value [2] was 50%.

For `CC(=O)Oc1ccccc1C(=O)[O-].CC(=O)Oc1ccccc1C(=O)[O-].CC(=O)Oc1ccccc1C(=O)[O-].CC(=O)Oc1ccccc1C(=O)[O-].[Cu+2].[Cu+2]` [Example 5, Tetra(μ-acetylsalicylato)biscopper(II)], the LD50 (in vivo; SC) was 760 ± 100 mpk, the “TI CFE” value (in vivo; CFE (carrageenin foot edema)) was 150 and the “TI PA” value (in vivo; PA (polyarthritis)) was 760. The “% potency compared with hydrocortisone” value [2] was 130%.

With `CC(=O)Oc1ccccc1C(=O)O` [aspirin, acetylsalicylic acid] the LD50 (in vivo; in vivo) was 790 mg/kg, the LD50 (in vivo; in vivo, po) was 1500 mg/kg and the “% potency compared with hydrocortisone” value [2] was 6%.

For `CC(=O)[O-].CC(=O)[O-].[Cu+2]` [cupric acetate], the LD50 (in vivo; SC) was 350 mpk, the “TI CFE” value (in vivo; CFE (carrageenin foot edema)) was 70 and the “TI PA” value (in vivo; PA (polyarthritis)) was 0. For the same compound, the “% potency compared with hydrocortisone” value [2] was 340%.

Work on `O=C(O)c1cccnc1Nc1cccc(C(F)(F)F)c1` [tpan, 2[3(trifluoro-methyl)phenyl]aminonicotinic acid] yielded a selectivity ratio (in vivo; in vivo, TI CFE, CFE (carrageenin foot edema)) of 15, a selectivity ratio (in vivo; in vivo, TI PA, PA (polyarthritis)) of 74 and an LD50 (in vivo; in vivo, po) of 370 ± 25 mg/kg. For the same compound, the “% potency compared with hydrocortisone” value [2] was 31%.

For “(3-p-chlorophenyl-3,4,5,6-tetrahydro-β-carboline-5-carboxylato)2n-(aqua)2n -copper(II)n [Example 30]”, the “anti-inflammatory activity” value [1] was “no anti-inflammatory activity”.

With “(17-Hydroxy-3-oxo-17α-pregn-4,6-diene-21-carboxalato)2n -(aqua)2n -copper(II)n [Example 41]” the “anti-inflammatory activity” value [1] was “no anti-inflammatory activity”.

With “(D-penicillaminato)2n -(aqua)2n -copper(II)n [Example 8]” the “anti-inflammatory activity” value [1] was “no anti-inflammatory activity”.

With “[2[3(trifluoromethyl)phenyl]aminonicotinato]2n -(aqua)n -copper(II)n [Example 6]” the LD50 (in vivo; SC) was 650 ± 80 mpk, the “TI CFE” value (in vivo; CFE (carrageenin foot edema)) was 130 and the “TI PA” value (in vivo; PA (polyarthritis)) was 650. The “% potency compared with hydrocortisone” value [2] was 180%.
